pIC50: −log10 of the molar value.
How the values were obtained:
Human CARM1 (PRMT4) = Human CARM1 (PRMT4) (Homo sapiens (Human), UniProt Q86X55); assay: CARM1 enzyme assay on peptide substrate (3H-SAM Flashplate); conditions: Biochemical potencies, classification codes; read-out: Biochem IC50
[1] = test system: asymmetric di-methyl PABP1 in RKO cells; assay: RKO methylation assay, In Cell Western (ICW) for asymmetric di-methyl PABP1; type: cell-based; conditions: Cellular potencies, PABP1me2a ICW
Excerpt: RKO adherent cells were purchased from ATCC (American Type Culture Collection), Manassas, Va., USA. DMEM/Glutamax medium, penicillin-streptomycin, heat inactivated fetal bovine serum, 0.05% trypsin and D-PBS were purchased from Life Technologies, Grand Island, N.Y., USA. Odyssey blocking buffer, 800CW goat anti-rabbit IgG (H+L) antibody, and Licor Odyssey infrared scanner were purchased from Licor Biosciences, Lincoln, Nebr., USA. Asymmetric di-methyl PABP1 antibody was purchased from Cell Signaling Technology, Danvers, Mass., USA. Methanol was purchased from VWR, Franklin, Mass., USA. 10% Tween 20 was purchased from KPL, Inc., Gaithersburg, Md., USA. Paraformaldehyde (PFA) was purchased from EM Sciences. DRAQ5 was purchased from Biostatus Limited, Leicestershire, UK.
RKO adherent cells were maintained in growth medium (DMEM/Glutamax medium supplemented with 10% v/v heat inactivated fetal bovine serum and 100 units/mL penicillin-streptomycin) and cultured at 37° C. under 5% CO2.
Cell treatment, In Cell Western (ICW) for detection of asymmetric di-methyl PABP1 and DNA content: RKO cells were seeded in assay medium at a concentration of 30,000 cells per mL to a poly-D-lysine coated 384 well culture plate (BD Biosciences 356697) with 50 μL per well. Compound (100 nL) from a 96-well source plate was added directly to 384 well cell plate. Plates were incubated at 37° C., 5% CO2 for 48 hours. After two days of incubation, plates were brought to room temperature outside of the incubator for ten minutes and blotted on paper towels to remove cell media. Cells were fixed for 20 minutes at room temperature by adding 50 ul of 8% PFA followed by aspiration of supernatant with the Biotek EL406 plate washer. Cells were then permeabilized by addition of 50 μL of ice cold 100% methanol directly to each well and incubated for 30 min at room temperature. After 30 min, plates were transferred to a Biotek EL406 plate washer and washed 2 times with 100 μL per well of wash buffer (1×PBS). Next 60 μL per well of Odyssey blocking buffer (Odyssey Buffer with 0.1% Tween 20 (v/v)) were added to each plate and incubated 1 hour at room temperature. Blocking buffer was removed and 20 μL per well of primary antibody was added (asymmetric-methyl PABP1) diluted 1:400 in Odyssey buffer with 0.1% Tween 20 (v/v)) and plates were incubated overnight (16 hours) at 4° C. Plates were washed 5 times with 100 μL per well of wash buffer. Next 20 μL per well of secondary antibody was added (1:800 800CW goat anti-rabbit IgG (H+L) antibody, 1:2000 DRAQ5 in Odyssey buffer with 0.1% Tween 20 (v/v)) and incubated for 1 hour at room temperature. The plates were washed 5 times with 100 μL per well wash buffer then 2 times with 100 μL per well of water. Plates were allowed to dry at room temperature then imaged on the Licor Odyssey machine which measures integrated intensity at 700 nm and 800 nm wavelengths. Both 700 and 800 channels were scanned.
First, the ratio for each well was determined by:
Each plate included fourteen control wells of DMSO only treatment (minimum inhibition) as well as fourteen control wells for maximum inhibition treated with 20 μM of a reference compound. The average of the ratio values for each control type was calculated and used to determine the percent […] for each test well in the plate. Reference compound was serially diluted three-fold in DMSO for a total of nine test concentrations, beginning at 20 μM.
Percent inhibition was determined and IC50 curves were generated using triplicate wells per concentration of compound.

NCI-H929 = assay: Human myeloma cell line 14-day proliferation assay (NCI-H929); type: cell-based; conditions: NCI-H929 Human Multiple Myeloma cell line, varying doses, FIG. 1A
Procedure: (§1) Human Multiple Myeloma cell lines NCI-H929 (FIG. 1A) and U266B1 (FIG. 1B) were treated with varying doses of 304-1a (medium grey data points), 23-3 (light grey data points), and 113-3 (black data points) in a 14-day proliferation assay. At the end of the experiment, total cell number was determined for each cell line for different doses of 304-1a, 23-3, and 113-3.

U266B1 = assay: Human myeloma cell line 14-day proliferation assay (U266B1); type: cell-based; conditions: U266B1 Human Multiple Myeloma cell line, varying doses, FIG. 1B
Procedure: as §1

Sequence of Human CARM1 (PRMT4) (Q86X55 other isoform, or with tags, fused parts or gaps isoform Q86X55-1): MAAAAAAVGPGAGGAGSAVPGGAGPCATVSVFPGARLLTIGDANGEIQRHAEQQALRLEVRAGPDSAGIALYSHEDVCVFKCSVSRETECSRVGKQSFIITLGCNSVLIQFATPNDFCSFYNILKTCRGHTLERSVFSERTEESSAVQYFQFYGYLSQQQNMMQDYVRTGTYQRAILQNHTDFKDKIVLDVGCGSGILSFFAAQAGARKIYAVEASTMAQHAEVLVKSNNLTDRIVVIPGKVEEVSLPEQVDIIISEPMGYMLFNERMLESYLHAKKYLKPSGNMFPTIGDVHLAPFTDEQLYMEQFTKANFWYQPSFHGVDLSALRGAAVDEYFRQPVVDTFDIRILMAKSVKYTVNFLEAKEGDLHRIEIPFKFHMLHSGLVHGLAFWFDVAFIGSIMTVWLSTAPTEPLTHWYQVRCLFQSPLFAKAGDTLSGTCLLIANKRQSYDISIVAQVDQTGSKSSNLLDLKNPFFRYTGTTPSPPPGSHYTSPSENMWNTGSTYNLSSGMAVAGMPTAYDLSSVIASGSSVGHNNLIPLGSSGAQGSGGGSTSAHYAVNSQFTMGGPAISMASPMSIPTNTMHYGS

Compound | pIC50 (Human CARM1 (PRMT4)) | other results
CNCC(O)COc1cccc(-c2nc(NC3CCOC3=O)cc(-c3c(C)noc3C)n2)c1 (stereo not shown) [Example 23-1a] | > 7.00 | pIC50 ([1]; Homo sapiens, RKO): 4.70 to 5.00
CCOC(=O)N1CCOC[C@@H]1CNc1nc(-c2cc(OC[C@H](O)CNC)ccc2Cl)nc(-c2c(C)noc2C)c1C [Example 23-3] | > 7.00 | cell proliferation (total cell number) (NCI-H929): decreased the proliferation; cell proliferation (total cell number) (U266B1): decreased the proliferation
CNCC(O)COc1cccc(-c2nc(NC3CCOC3=O)cc(-c3c(C)noc3C)n2)c1 (stereo not shown) [Example 24-1a] | – | pIC50 [1]: 4.70 to 5.00
CNCC(O)COc1cccc(-c2nc(-c3c(C)noc3C)cc(N3C[C@@H]4C[C@H]3CN4C(=O)OC)n2)c1 (stereo partly shown) [Example 105-1a] | > 7.00 | pIC50 [1]: 5.00 to 5.30
CNC[C@@H](O)COc1ccc(Cl)c(-c2nc(-c3c(C)noc3C)c(C)c(N3Cc4cccnc4C3)n2)c1 [Example 113-3] | > 7.00 | cell proliferation (total cell number) (NCI-H929): decreased the proliferation; cell proliferation (total cell number) (U266B1): decreased the proliferation
CNCC(O)COc1cccc(-c2nc(-c3c(C)noc3C)c(C)c(N3CCO[C@H](CNC)C3)n2)c1 (stereo partly shown) [Example 129-1a] | > 7.00 | pIC50 [1]: 4.70 to 5.00
CNC[C@@H](O)COc1ccc(Cl)c(-c2nc(NC3CCN(C(=O)OC)CC3)c(Cl)c(-c3c(C)noc3C)n2)c1 [Example 304-1a] | > 7.00 | cell proliferation (total cell number) (NCI-H929): decreased the proliferation; cell proliferation (total cell number) (U266B1): decreased the proliferation
CNCC(O)COc1cccc(-c2nc(N[C@@H]3CCOC3)c(C)c(N3CCC(n4c(C)nnc4C)CC3)n2)c1 (stereo partly shown) [Example 390-1a] | – | pIC50 ([1]; Homo sapiens, RKO): 5.00 to 5.30
CNCC(O)COc1cccc(-c2nc(N[C@@H]3CCOC3)c(C)c(-c3ccc4nccn4c3)n2)c1 (stereo partly shown) [Example 445-1a] | – | pIC50 ([1]; Homo sapiens, RKO): 4.70 to 5.00
CCS(=O)(=O)n1cc(-c2cc(N(C)C3CCOCC3)nc(-c3cccc(OCC(O)CNC)c3)n2)c2cncnc21 (stereo not shown) [Example 484-1a] | – | pIC50 ([1]; Homo sapiens, RKO): > 5.30
CNC[C@@H](O)COc1cccc(-c2nc(N3CC4(CCNCC4)c4ccccc43)cc(N(C)C3CCOCC3)n2)c1 [Example 558-1a] | > 7.00 | pIC50 [1]: 4.70 to 5.00
CNCC(O)COc1cc(Cl)cc(-c2nc(-c3ccncc3)cc(N3CCOCC3)n2)c1 (stereo not shown) [Example 632-1a] | > 7.00 | –
CNCC(O)COc1cccc(-c2nc(NC3CCOCC3)c(C)c(N3CCN(C(C)C)CC3)n2)c1 (stereo not shown) [Example 644-1a] | > 7.00 | –
CNCC(O)COc1cccc(-c2nc(NC3CCOCC3)cc(-c3ccc4c(c3)OCCO4)n2)c1 (stereo not shown) [Example 657-1a] | > 7.00 | –
CNCC(O)COc1cc(Cl)cc(-c2nc(NC3CCNCC3)cc(-c3ccncc3)n2)c1 (stereo not shown) [Example 665-1a] | > 7.00 | –
CNCC(O)COc1cccc(-c2nc(-c3ccncc3)cc(N(C)C3CCNCC3)n2)c1 (stereo not shown) [Example 669-1a] | > 7.00 | –
CNCC(O)COc1cccc(-c2nc(C(=O)NC3CCOCC3)c(C)c(C(=O)NC3CCOCC3)n2)c1 (stereo not shown) [Example 677-1a] | < 5.00 | –
CCN(CC)c1nc(-c2cccc(OCC(O)CNC)c2)nc(N2CCOCC2)c1C (stereo not shown) [Example 682-1a] | > 7.00 | –

Continued, in another order:

pIC50 (Human CARM1 (PRMT4)) | Compound | other results
6.00 to 7.00 | CNCC(O)COc1cccc(-c2nc(C3CCN(C(=O)N(C)C)[C@@H](C)C3)cc(N(C)C3CCOCC3)n2)c1 (stereo partly shown) [Example 509-1a] | pIC50 ([1]; Homo sapiens, RKO): 5.00 to 5.30
> 7.00 | CNCC(O)COc1cccc(-c2nc(-c3cccc4ncccc34)cc(N(C)C3CCOCC3)n2)c1 (stereo not shown) [Example 616-1a] | –
> 7.00 | CNCC(O)COc1cc(Cl)cc(-c2nc(-c3cn[nH]c3)c(C)c(N(C)C3CCOCC3)n2)c1 (stereo not shown) [Example 617-1a] | –
> 7.00 | CNCC(O)COc1cc(Cl)cc(-c2nc(N(C)C3CCOCC3)c(C)c(-n3cccn3)n2)c1 (stereo not shown) [Example 618-1a] | –
> 7.00 | C=C(C)c1cc(N(C)C2CCOCC2)nc(-c2cc(Cl)cc(OCC(O)CNC)c2)n1 (stereo not shown) [Example 619-1a] | –
> 7.00 | CNCC(O)COc1cccc(-c2nc(-c3cnc4nccn4c3)cc(N(C)C3CCOCC3)n2)c1 (stereo not shown) [Example 620-1a] | –
> 7.00 | CNCC(O)COc1cccc(-c2nc(C3=CCCC3)cc(N(C)C3CCOCC3)n2)c1 (stereo not shown) [Example 621-1a] | –
> 7.00 | CNCC(O)COc1cccc(-c2nc(-c3cccc(C#N)c3)cc(N(C)C3CCOCC3)n2)c1 (stereo not shown) [Example 622-1a] | –
> 7.00 | CNCC(O)COc1cc(Cl)cc(-c2nc(C(=O)OC)cc(N(C)C3CCOCC3)n2)c1 (stereo not shown) [Example 623-1a] | –
> 7.00 | CNCC(O)COc1cccc(-c2nc(-c3nc(C)cs3)cc(N(C)C3CCOCC3)n2)c1 (stereo not shown) [Example 624-1a] | –
> 7.00 | CNCC(O)COc1cccc(-c2nc(NC3CCOCC3)cc(-c3ccc(OC)c(OC)c3)n2)c1 (stereo not shown) [Example 658-1a] | –

Reference: patent US20230279020A9, “CARM1 INHIBITORS AND USES THEREOF” (Epizyme, Inc., priority 2013, published 2023)
